Assay results reported in the OPERA property sets (Mansouri et al. 2018).
Values after ≈ are worked out from the molar mass of the structure shown.

Conditions: 25 °C

Row | SMILES | solubility
1 | Clc1cccc2ccccc12 | 107 µM (≈ 17.4 µg/mL)
2 | Fc1ccc(CCl)cc1 | 2860 µM (≈ 413 µg/mL)
3 | CC(=O)OCCBr | 212000 µM (≈ 35400 µg/mL)
4 | CCCCCCCc1ccccc1 | 2.54 µM (≈ 0.447 µg/mL)
5 | Cc1c(C)c(C)c(C)c(C)c1C | 1.45 µM (≈ 0.235 µg/mL)
6 | CCCCCCCCc1ccccc1 | 0.347 µM (≈ 0.066 µg/mL)

Second part, the compound after the results:

Row | solubility | SMILES
7 | 2610 µM (≈ 371 µg/mL) | CCCCCCCC(C)=O
8 | 353 µM (≈ 51.5 µg/mL) | Fc1cccc2ccccc12
9 | 491 µM (≈ 76.8 µg/mL) | CCCCCCCCC(C)=O
10 | 133 µM (≈ 22.9 µg/mL) | CCCCCCCCC(=O)OC
11 | 14200 µM (≈ 2240 µg/mL) | CC(Br)CCl (configuration not stated)
12 | 11600 µM (≈ 1580 µg/mL) | Cc1ccc(C)c(O)c1C
